Measurements as given in patent US20210220376A1, “ADDICTION TREATMENT OF AN ALCOHOL-CONSUMING PATIENT POPULATION” (Amygdala Neurosciences, Inc., priority 2018, published 2021).

Key:
[1] = tested on: alcohol-consuming patient population; conditions: 500 mg/day DSF; cited from earlier work
[2] = target: T1, hMAO-A (Homo sapiens, UniProt P21397); conditions: read-out: IC50 hMAO-A; cited from earlier work
T1 sequence (P21397 1-527): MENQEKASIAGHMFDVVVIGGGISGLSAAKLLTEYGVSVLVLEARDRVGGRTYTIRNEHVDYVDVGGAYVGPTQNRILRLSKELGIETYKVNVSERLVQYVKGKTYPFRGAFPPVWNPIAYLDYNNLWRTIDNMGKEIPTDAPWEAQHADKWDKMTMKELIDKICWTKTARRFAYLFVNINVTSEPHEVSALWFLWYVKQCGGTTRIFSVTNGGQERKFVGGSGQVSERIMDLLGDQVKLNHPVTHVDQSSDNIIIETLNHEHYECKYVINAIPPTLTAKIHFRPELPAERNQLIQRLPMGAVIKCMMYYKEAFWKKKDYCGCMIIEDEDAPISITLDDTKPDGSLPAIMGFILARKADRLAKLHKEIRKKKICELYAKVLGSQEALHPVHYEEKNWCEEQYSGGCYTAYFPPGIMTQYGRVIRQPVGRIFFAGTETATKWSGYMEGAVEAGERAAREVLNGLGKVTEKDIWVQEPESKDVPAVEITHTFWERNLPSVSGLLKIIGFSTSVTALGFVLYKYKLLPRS

[3] = target: T2, hMAO-B (Homo sapiens, UniProt P27338); conditions: read-out: IC50 hMAO-B; cited from earlier work
T2 sequence (P27338 1-520): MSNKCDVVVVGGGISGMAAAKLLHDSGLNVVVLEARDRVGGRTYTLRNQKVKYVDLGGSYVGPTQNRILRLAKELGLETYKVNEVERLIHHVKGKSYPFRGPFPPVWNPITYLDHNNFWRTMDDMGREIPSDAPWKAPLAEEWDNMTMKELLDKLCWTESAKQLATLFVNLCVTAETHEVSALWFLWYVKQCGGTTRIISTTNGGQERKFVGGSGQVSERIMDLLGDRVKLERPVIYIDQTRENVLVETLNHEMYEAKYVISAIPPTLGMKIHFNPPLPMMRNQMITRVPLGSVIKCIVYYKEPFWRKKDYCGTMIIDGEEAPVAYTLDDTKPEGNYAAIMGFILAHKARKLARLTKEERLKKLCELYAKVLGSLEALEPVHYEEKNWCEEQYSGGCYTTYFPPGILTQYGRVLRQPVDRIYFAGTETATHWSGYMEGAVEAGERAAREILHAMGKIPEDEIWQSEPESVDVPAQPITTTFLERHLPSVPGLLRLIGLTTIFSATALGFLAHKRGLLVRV

[4] = Phase 1 study of compound (2) with ethanol: pharmacokinetics of compound (1) and breath alcohol
From the text: Plasma concentrations of compound (1) and BrAC were summarized and listed by treatment, subject and timepoint. Pharmacokinetic parameters derived for compound (1) were also summarized and listed by treatment and subject. Pharmacokinetic parameters were estimated using a non-compartmental approach with a log-linear terminal phase assumption. The trapezoidal rule was used to estimate the area under the curve (linear trapezoidal linear interpolation) and the terminal phase will be estimated by maximizing the coefficient of determination estimated from the log-linear regression model. However, AUC0-∞, AUClast/∞, λz and t1/2 parameters were to be estimated for individual concentration-time profiles only when the terminal log-linear phase could be reliably characterized.
Proportionality analysis was done using a power model. The power model was defined as: […]
A linear model with ln-transformed dose as a continuous effect was fitted. A point estimate and a 90% CI was derived for the slope (β). The parameter could be considered to be dose proportional if the 90% confidence interval of the slope β was within [1+ln(0.8)/ln(r), 1+ln(1.25)/ln(r)], where r=the highest dose studied/the lowest dose (Smith et al., “Confidence interval criteria for assessment of dose proportionality.” Pharm Res. 17 (10):1278-83 (2000)).

SMILES	IC50 [2] [µM]	IC50 [3] [µM]	also measured
CCN(CC)C(=S)SSC(=S)N(CC)CC [DSF, Disulfuram]	–	–	outcome of safety study [1]: halted prematurely due to severity of DER
O=C(NCc1ccc(-c2cc[nH]c(=O)c2)cc1)c1cccc(F)c1Cl [(4), 2-chloro-3-fluoro-N-(4-(2-oxo-1,2-dihydropyridin-4-yl)benzyl)benzamide]	> 130	> 130	–
O=C(NCc1ccc(-c2cc(=O)[nH]cc2F)cc1)c1c(Cl)cccc1Cl [(14), 2,6-dichloro-N-(4-(5-fluoro-2-oxo-1,2-dihydropyridin-4-yl)benzyl)benzamide]	> 130	> 130	–
COCCOc1cc(Cl)c(C(=O)NCc2ccc(-c3cc[nH]c(=O)c3)cc2)c(Cl)c1 [(3), 2,6-dichloro-4-(2-methoxyethoxy)-N-(4-(2-oxo-1,2-dihydropyridin-4-yl)benzyl)benzamide]	> 130	> 130	–
O=C(NCc1ccc(-c2cc[nH]c(=O)c2)cc1)c1c(F)cccc1F [(11), 2,6-difluoro-N-(4-(2-oxo-1,2-dihydropyridin-4-yl)benzyl)benzamide]	> 130	> 130	–
O=C(NCc1ccc(-c2cc[nH]c(=O)c2)cc1)c1c(F)cccc1Cl [(12), 2-chloro-6-fluoro-N-(4-(2-oxo-1,2-dihydropyridin-4-yl)benzyl)benzamide]	> 130	> 130	–
O=C(NCc1ccc(-c2cc[nH]c(=O)c2)cc1)c1c(F)ccc(F)c1Cl [(8), 2-chloro-3,6-difluoro-N-(4-(2-oxo-1,2-dihydropyridin-4-yl)benzyl)benzamide]	> 130	> 130	–
Cn1ccc(-c2ccc(CNC(=O)c3c(Cl)cccc3Cl)cc2)cc1=O [(10), 2,6-dichloro-N-(4-(1-methyl-2-oxo-1,2-dihydropyridin-4-yl)benzyl)benzamide]	> 130	> 130	–
Cc1cc(CNC(=O)c2c(Cl)cccc2Cl)ccc1-c1cc[nH]c(=O)c1 [(9), 2,6-dichloro-N-(3-methyl-4-(2-oxo-1,2-dihydropyridin-4-yl)benzyl)benzamide]	> 130	> 130	–
Cc1cc(-c2ccc(CNC(=O)c3c(Cl)cccc3Cl)cc2)cc(=O)[nH]1 [(7), 2,6-dichloro-N-[4-(6-methyl-2-oxo-1,2-dihydro-pyridin-4-yl)-benzyl]-benzamide]	> 130	> 130	–
Cc1cccc(C)c1C(=O)NCc1ccc(-c2cc[nH]c(=O)c2)cc1 [(6), 2,6-dimethyl-N-(4-(2-oxo-1,2-dihydropyridin-4-yl)benzyl)benzamide]	> 130	> 130	–
O=C(NCc1ccc(-c2cc[nH]c(=O)c2)cc1)c1c(Cl)cccc1Cl [Compound (1), 2,6-dichloro-N-[4-(2-oxo-1,2-dihydro-pyridin-4-yl)-benzyl]-benzamide]	> 130	> 130	dose proportionality of peak and overall exposure (power model) ([4]; 25 mg to 600 mg dose range): did not increase in a compound (2) dose-proportional manner; peak (Cmax) and overall (AUC) exposure to compound (1) ([4]; following a moderate-fat meal): increased with increasing dose of compound (2); Tmax ([4]; male, human, plasma, po): 3.5 to 5 h; half-life ([4]; male, human, plasma, po): 17 to 27 h
O=C(NCc1ccc(-c2cc[nH]c(=O)c2)cc1F)c1c(Cl)cccc1Cl [(13), 2,6-dichloro-N-(2-fluoro-4-(2-oxo-1,2-dihydropyridin-4-yl)benzyl)benzamide]	> 130	> 130	–
Cc1cccc(Cl)c1C(=O)NCc1ccc(-c2cc[nH]c(=O)c2)cc1 [(5), 2-chloro-6-methyl-N-(4-(2-oxo-1,2-dihydropyridin-4-yl)benzyl)benzamide]	> 130	> 130	–
